In ChEMBL document CHEMBL1821708, “Piperazinyl quinolines as chemosensitizers to increase fluconazole susceptibility of Candida albicans clinical isolates” (Bioorg Med Chem Lett, 2011):
pIC50: −log10 of the molar value. Converted amounts (≈) assume the structure as drawn.

Legend:
Candida albicans [1] = assay: Growth inhibition of Candida albicans isolate CaCi-2 assessed as relative fungal growth in presence of Fluconazole after 48 hrs by Almar blue fluorometry; type: functional, organism-based; settings: isolate CaCi-2, 48 h
Candida albicans [2] = assay: Growth inhibition of Candida albicans isolate CaCi-8 assessed as relative fungal growth in presence of Fluconazole after 48 hrs by Almar blue fluorometry; type: functional, organism-based; settings: isolate CaCi-8, 48 h
Candida albicans [3] = assay: Growth inhibition of Candida albicans isolate CaCi-2 at 1 uM after 48 hrs by Almar blue fluorimetry in presence of fluconazole; type: functional; settings: isolate CaCi-2, 48 h, read-out: GI
[4] = Aqueous solubility of the compound in phosphate buffered saline; type: physicochemical
[5] = Inhibition of calcineurin signaling pathway in Candida albicans
[6] = Inhibition of HSP90 signaling pathway in Candida albicans
Candida albicans [7] = assay: Growth inhibition of Candida albicans isolate CaCi-8 at 1 uM after 48 hrs by Almar blue fluorometry in presence of Fluconazole; type: functional; settings: isolate CaCi-8, 48 h, read-out: GI
Candida albicans [8] = assay: Antifungal activity against Candida albicans CaCi-2 clinical isolate; type: functional
Candida albicans [9] = assay: Antifungal activity against Candida albicans CaCi-8 clinical isolate; type: functional

| Compound | pIC50 (Candida albicans [1]) | pIC50 (Candida albicans [2]) | further results |
| --- | --- | --- | --- |
| Cc1ccc(C(=O)N2CCN(c3ccnc4cc(Cl)ccc34)CC2)cc1 | 5.64 | 5.51 |  |
| O=C(c1ccc(Cl)cc1)N1CCN(c2ccnc3cc(Cl)ccc23)CC1 | 6.15 | 5.89 | inhibition of growth at 1 µM (Candida albicans [3]): 97%; solubility ([4]; phosphate buffered saline, read-out: solubility): < 5 µM; pIC50 [5]: < 4.59; pIC50 [6]: < 4.59; inhibition of growth at 1 µM (Candida albicans [7]): 97% |
| O=C(C1CCCCC1)N1CCN(c2ccnc3cc(Cl)ccc23)CC1 | 5.77 | 5.40 |  |
| COc1ccc(C(=O)N2CCN(c3ccnc4cc(Cl)ccc34)CC2)cc1 | 5.28 | 4.77 |  |
| O=C(c1ccc(F)cc1)N1CCN(c2ccnc3cc(Cl)ccc23)CC1 | 5.44 | 5.38 |  |
| O=C(c1cccc(Cl)c1)N1CCN(c2ccnc3cc(Cl)ccc23)CC1 | 5.36 | 5.11 |  |
| O=C(c1ccccc1Cl)N1CCN(c2ccnc3cc(Cl)ccc23)CC1 | 5.14 | 4.85 |  |
| O=C(c1ccc(Cl)c(Cl)c1)N1CCN(c2ccnc3cc(Cl)ccc23)CC1 | 6.00 | 5.68 |  |
| O=C(c1ccccc1)N1CCN(c2ccnc3cc(Cl)ccc23)CC1 | 5.36 | 5.21 |  |
| CCCC(=O)N1CCN(c2ccnc3cc(Cl)ccc23)CC1 | 5.20 | 4.82 |  |
| CC(C)C(=O)N1CCN(c2ccnc3cc(Cl)ccc23)CC1 | 5.14 | < 4.59 |  |
| O=C(C1CCCC1)N1CCN(c2ccnc3cc(Cl)ccc23)CC1 | 5.44 | 5.28 |  |
| O=C(Nc1ccc(Cl)cc1)N1CCN(c2ccnc3cc(Cl)ccc23)CC1 | 5.38 | 5.64 |  |
| O=C(c1ccc(Cl)nc1)N1CCN(c2ccnc3cc(Cl)ccc23)CC1 | 5.17 | 4.96 | solubility ([4]; buffer): soluble |
| O=C(c1ccc(Cl)cn1)N1CCN(c2ccnc3cc(Cl)ccc23)CC1 | 5.31 | 5.39 | solubility ([4]; buffer): soluble |
| O=C(c1csc2ccccc12)N1CCN(c2ccnc3cc(Cl)ccc23)CC1 | 5.72 | 5.40 | solubility ([4]; buffer): soluble |

| Compound | pIC50 (Candida albicans [1]) | pIC50 (Candida albicans [2]) | further results |
| --- | --- | --- | --- |
| O=C(c1ccc(Cl)cc1)N1CCN(c2ccnc3ccc(Cl)cc23)CC1 | 5.62 | 5.20 |  |
| COc1ccc2c(N3CCN(C(=O)c4ccc(Cl)cc4)CC3)ccnc2c1 | 5.32 | 4.86 |  |
| Cc1cc(N2CCN(C(=O)c3ccc(Cl)cc3)CC2)c2ccccc2n1 | 5.14 | < 4.59 |  |
| O=C(c1ccc(Cl)cc1)N1CCN(c2ccnc3ccccc23)CC1 | 5.24 | 4.83 |  |
| O=C(c1ccc(Cl)cc1)N1CCN(c2ccccn2)CC1 | < 5.00 | 4.62 |  |
| O=C(c1ccc(Cl)cc1)N1CCN(c2cccnc2)CC1 | 5.14 | < 4.59 |  |
| O=C(c1ccc(Cl)cc1)N1CCN(c2ccncc2)CC1 | 5.14 | < 4.59 |  |
| Cc1ccc(N2CCN(C(=O)c3ccc(Cl)cc3)CC2)nn1 | 5.07 | 4.69 |  |
| O=C(c1ccc(Cl)cc1)N1CCN(c2ncccn2)CC1 | 5.15 | 4.74 |  |
| O=C(c1ccc(Cl)cc1)N1CCN(c2cnccn2)CC1 | 5.05 | 4.65 |  |
| O=C(c1ccc(Cl)cc1)N1CCN(c2ncnc3ccccc23)CC1 | 5.32 | 4.96 |  |
| O=C(c1ccc(Cl)cc1)N1CCN(c2nc3ccccc3s2)CC1 | 5.26 | 4.97 |  |
| Cn1ccnc1N1CCN(C(=O)c2ccc(Cl)cc2)CC1 | 5.21 | < 4.59 |  |
| O=C(c1ccc(Cl)cc1)N1CCN(c2nccs2)CC1 | 5.16 | 4.72 |  |
| O=C(c1ccc(Cl)cc1)N1CCN(c2ccc(Cl)cc2)CC1 | 5.06 | 4.72 |  |
| OC(Cn1cncn1)(Cn1cncn1)c1ccc(F)cc1F [FLUCONAZOLE] |  |  | MIC (Candida albicans [8]): 6.5 µM (≈ 1.99 µg/mL); MIC (Candida albicans [9]): 26 µM (≈ 7.96 µg/mL) |
